Drawing on patent publication US11208400B2, “Substituted 6-(1H-pyrazol-1-yl)pyrimidin-4-amine derivatives and uses thereof” (Bayer Aktiengesellschaft, priority 2016, dated 2021), this text covers IC50 for eleven compounds.

Broadly, the IC50 is the concentration that gives 50% inhibition. High values mean lower potency, low ones higher potency.

The test addresses T1, human Npt2a (Homo sapiens, UniProt Q06495).
T1 construct: expressed in transfected cells
T1 sequence (Q06495 1-639): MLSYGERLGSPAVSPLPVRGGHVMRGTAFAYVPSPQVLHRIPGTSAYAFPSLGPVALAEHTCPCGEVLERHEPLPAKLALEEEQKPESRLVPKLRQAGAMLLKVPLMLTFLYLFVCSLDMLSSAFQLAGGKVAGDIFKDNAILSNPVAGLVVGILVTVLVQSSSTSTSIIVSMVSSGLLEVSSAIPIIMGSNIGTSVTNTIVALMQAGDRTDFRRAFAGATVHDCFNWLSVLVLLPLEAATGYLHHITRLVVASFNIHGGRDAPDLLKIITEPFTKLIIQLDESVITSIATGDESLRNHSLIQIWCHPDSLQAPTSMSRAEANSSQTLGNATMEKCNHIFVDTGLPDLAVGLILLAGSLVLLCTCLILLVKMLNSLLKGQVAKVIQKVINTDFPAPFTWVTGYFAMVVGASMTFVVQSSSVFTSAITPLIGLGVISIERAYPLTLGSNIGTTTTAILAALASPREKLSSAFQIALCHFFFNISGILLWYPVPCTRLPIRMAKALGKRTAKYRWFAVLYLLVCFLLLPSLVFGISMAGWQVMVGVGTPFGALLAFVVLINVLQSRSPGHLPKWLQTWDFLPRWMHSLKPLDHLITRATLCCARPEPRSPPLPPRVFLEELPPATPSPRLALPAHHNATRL
As to the kind of experiment: Npt2a activity cell based assay, membrane potential dye, CHO T-REx hNpt2a cells. The note with it: doxycycline-induced, depolarization by sodium phosphate influx, average or median values if tested more than once. The method in brief: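 Cells were doxycycline-induced CHO T-REx hNpt2a, dye-loaded and pretreated 5 min at RT with 1 nM–50 μM compound in Na-free pH 7.4 buffer. IC50 was fit to the post/pre-trigger fluorescence ratio.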
`CCc1c(Nc2cc(-n3nc(C)cc3C)ncn2)nn(CC2CC2)c1-c1ccc(F)cc1` [Example 143, N-[1-(cyclopropylmethyl)-4-ethyl-5-(4-fluorophenyl)-1H-pyrazol-3-yl]-6-(3,5-dimethyl-1H-pyrazol-1-yl)pyrimidin-4-amine] registered an IC50 of 0.415 µM.
In turn, `CCc1c(Nc2cc(-n3nc(C)c(Cl)c3C)ncn2)nn(CC2CC2)c1-c1ccc(F)cc1` [Example 144, 6-(4-chloro-3,5-dimethyl-1H-pyrazol-1-yl)-N-[1-(cyclopropylmethyl)-4-ethyl-5-(4-fluorophenyl)-1H-pyrazol-3-yl]pyrimidin-4-amine] showed an IC50 of 0.52 µM.
Compound `CCOC(=O)c1c(C)nn(-c2cc(Nc3nn(CC4CC4)c(-c4ccc(F)cc4)c3CC)ncn2)c1C` [Example 145, ethyl 1-(6-{[1-(cyclopropylmethyl)-4-ethyl-5-(4-fluorophenyl)-1H-pyrazol-3-yl]amino}pyrimidin-4-yl)-3,5-dimethyl-1H-pyrazole-4-carboxylate] gave an IC50 of 0.17 µM.
As to `CCOC(=O)c1c(C)nn(-c2cc(Nc3c(CC)c(-c4ccc(F)cc4)nn3CC3CC3)ncn2)c1C` [Example 147, ethyl 1-(6-{[1-(cyclopropylmethyl)-4-ethyl-3-(4-fluorophenyl)-1H-pyrazol-5-yl]amino}pyrimidin-4-yl)-3,5-dimethyl-1H-pyrazole-4-carboxylate], the IC50 was 0.003 µM.
The result for `CCc1c(-c2ccc(F)cc2)nn(CC2CC2)c1Nc1cc(-n2nc(C)c(Cl)c2C(F)F)ncn1` [Example 148, 6-[4-chloro-5-(difluoromethyl)-3-methyl-1H-pyrazol-1-yl]-N-[1-(cyclopropylmethyl)-4-ethyl-3-(4-fluorophenyl)-1H-pyrazol-5-yl]pyrimidin-4-amine] reads 0.08 µM.
For `CCOC(=O)c1c(C)nn(-c2cc(Nc3c(C)c(-c4ccc(C#N)cc4)nn3CC3CC3)ncn2)c1C` [Example 149, ethyl 1-(6-{[3-(4-cyanophenyl)-1-(cyclopropylmethyl)-4-methyl-1H-pyrazol-5-yl]amino}pyrimidin-4-yl)-3,5-dimethyl-1H-pyrazole-4-carboxylate] the value was 0.007 µM; for `CCOC(=O)c1c(C)nn(-c2cc(Nc3nn(CC4CC4)c(-c4ccc(F)cc4)c3C)ncn2)c1C` [Example 151, ethyl 1-(6-{[1-(cyclopropylmethyl)-5-(4-fluorophenyl)-4-methyl-1H-pyrazol-3-yl]amino}pyrimidin-4-yl)-3,5-dimethyl-1H-pyrazole-4-carboxylate], 0.39 µM; for `CCOC(=O)c1c(C)nn(-c2cc(Nc3c(C)c(-c4ccc(F)cc4)nn3CC3CC3)ncn2)c1C` [Example 152, ethyl 1-(6-{[1-(cyclopropylmethyl)-3-(4-fluorophenyl)-4-methyl-1H-pyrazol-5-yl]amino}pyrimidin-4-yl)-3,5-dimethyl-1H-pyrazole-4-carboxylate], 0.006 µM.
For `CCOC(=O)c1c(C)nn(-c2cc(Nc3nn(CC4CC4)c(-c4ccc(F)cc4)c3Cl)ncn2)c1C` [Example 153, ethyl 1-(6-{[4-chloro-1-(cyclopropylmethyl)-5-(4-fluorophenyl)-1H-pyrazol-3-yl]amino}pyrimidin-4-yl)-3,5-dimethyl-1H-pyrazole-4-carboxylate], the IC50 was 0.41 µM.
`Cc1nn(-c2cc(Nc3c(C)c(-c4ccc(C#N)cc4)nn3CC3CC3)ncn2)c(C(F)F)c1Cl` [Example 154, 4-[5-({6-[4-chloro-5-(difluoromethyl)-3-methyl-1H-pyrazol-1-yl]pyrimidin-4-yl}amino)-1-(cyclopropylmethyl)-4-methyl-1H-pyrazol-3-yl]benzonitrile] yielded an IC50 of 0.003 µM.
For `CCOC(=O)c1c(C)nn(-c2cc(Nc3c(CC)c(-c4ccc(F)cc4)nn3C)ncn2)c1C` [Example 155, ethyl 1-(6-{[4-ethyl-3-(4-fluorophenyl)-1-methyl-1H-pyrazol-5-yl]amino}pyrimidin-4-yl)-3,5-dimethyl-1H-pyrazole-4-carboxylate] the value was 0.009 µM.
